Numbers after ± are expanded uncertainties.
Experiment: xn = mol fraction of the nth substance listed
Conditions: 101 kPa, Liquid, x1 = 0.423; for mass density: Buoyancy - hydrostatic balance

In the case of `O=C([O-])[O-].[Na+].[Na+]` [sodium carbonate] + [Cl-].[Na+], the mass density (973 K) is reported as 1830 ± 40 kg/m3, the viscosity (973 K) is reported as 17.02 ± 0.4 mPa·s and the mass density (1023 K) is reported as 1810 ± 40 kg/m3. It also gave a viscosity (1023 K) of 9.285 ± 0.23 mPa·s, a mass density (1073 K) of 1800 ± 40 kg/m3 and a viscosity (1073 K) of 5.31 ± 0.14 mPa·s. The mass density (1123 K) was 1760 ± 40 kg/m3, the viscosity (1123 K) was 2.468 ± 0.079 mPa·s and the mass density (1173 K) was 1730 ± 40 kg/m3. For the same compound, the viscosity (1173 K) was 1.219 ± 0.051 mPa·s, the mass density (1223 K) was 1720 ± 30 kg/m3 and the mass density (1273 K) was 1680 ± 30 kg/m3.
